Experimental findings from patent publication US12123060B2, “Method for identifying targets for precision cancer therapy” (Tampere University Foundation sr, priority 2021, dated 2024) are described below.

Molecules are shown by their SMILES.

What all share (type): cell-based, human
The subject of test [1] is L1 ORF1 and ORF2 mRNA in VCaP cells. In words: qPCR of L1 ORF1 and ORF2 mRNA. The conditions noted are these: for increase in ORF1 and ORF2 expression: 5-day treatment, carboplatin 5 μM or ENZ 10 μM, FIG. 3B. The protocol: Carboplatin or enzalutamide dissolved in DMSO and culture medium without FBS was added after a 24-hour initial incubation period. To control cells DMSO diluted in culture medium was added to a final concentration of 0.02%. LNCaP prostate cancer cells were transfected with L1 plasmid or positive and negative control plasmids and treated with carboplatin (5 μM) or ENZ (10 μM) the day after transfection, and cells were monitored for five days.
(§1) The isolation of RNA from cell lines was conducted using TriPure Isolation Reagent (Roche) following the manufacturer's protocol. The concentration of the RNA samples was measured using NanoDrop™ One/OneC Microvolume UV-Vis Spectrophotometer, followed by dilution of the samples to 1 μg/μl. The conversion of 1 μg of RNA to cDNA was done using Transcriptor First Strand cDNA Synthesis Kit (Roche) according to the manufacturer's instructions. The RT-PCR run was performed using LightCycler™ 480 SYBR Green I Master (Roche) and The LightCycler® 480 Real-Time PCR System (Roche) with 96-multiwell format. To allow separate analysis of ORF1 and ORF2, two sets of primer pairs were designed to target the L1RP-ORF1 (ORF1 mRNA thereafter), L1RP-ORF2 (ORF2 mRNA thereafter) and FANCI (Table 2). Each run included two biological and two technical replicates per treatment with fold change calculated based on the obtained Ct-values. Normalization was done against GAPDH values measured (Table 2).
For orientation: Quantitative PCR measures a nucleic acid by following its amplification.

Test [2] has as its system L1 activity in LNCaP prostate cancer cells. Briefly: L1-EGFP retrotransposition reporter assay. The conditions noted are these: carboplatin 5 μM or ENZ 10 μM, 5 days, FIG. 3A. The protocol:
FIG. 3. […] (A) The effects of carboplatin (5 μM) or enzalutamide (ENZ, 10 μM) on L1 activity in LNCaP prostate cancer cells analyzed using a retrotransposition L1-EGFP reporter assay and IncuCyte S3 imaging equipped with a green fluorescence channel. Representative IncuCyte cell images are shown for untreated, ENZ, and carboplatin exposed LNCaP cells with green channel only (L1-EGFP) and phase contrast. The control plasmids used included two negative controls (L1Neg-EGFP and L1Mut-EGFP) and a positive control plasmid (L1Pos-EGFP). […] See also FIG. 8. (B) The effects of carboplatin or ENZ on ORF1 and ORF2 mRNA expression in LNCaP, VCaP, PC-3, and 22Rv1 prostate cancer cells. (C) L1 ORF1 and ORF2 mRNA levels from pre- and post-castration xenograft samples from LuCaP 77 and LuCaP 105 (23). […]
FIG. 8. […] (A) The effects of carboplatin (5 μM) or enzalutamide (ENZ, 10 μM) on L1 activity in LNCaP prostate cancer cells analyzed using a retrotransposition L1-EGFP reporter assay and IncuCyte S3 imaging system equipped with a green fluorescence channel. […]
Carboplatin or enzalutamide dissolved in DMSO and culture medium without FBS was added after a 24-hour initial incubation period. […] LNCaP prostate cancer cells were transfected with L1 plasmid or positive and negative control plasmids and treated with carboplatin (5 μM) or ENZ (10 μM) the day after transfection, and cells were monitored for five days. […]

Test [3] concerns L1 ORF1 and ORF2 mRNA in LNCaP cells. Briefly: qPCR of L1 ORF1 and ORF2 mRNA. The following applies: for ORF1 and ORF2 mRNA expression compared to control treated cells: 5 days, alone or in combination, AZT 50 μM. The protocol:
Carboplatin or enzalutamide dissolved in DMSO and culture medium without FBS was added after a 24-hour initial incubation period. To control cells DMSO diluted in culture medium was added to a final concentration of 0.02%. […]
as §1

For another test, the system named is LNCaP cells. In words: Cell proliferation assay (siRNA knockdown, cell confluence). The following applies: 10 μM carboplatin. The protocol: For cell proliferation assays, cells were reverse transfected with 25 nM siRNAs against FANCI (Dharmacon, ON-TARGETplus SMARTpool, L-022320-01-0005) or Scr control (Dharmacon, non-targeting pool), using OPTI-MEM and Lipofectamine 2000 transfection reagent (Invitrogen) in four biological replicates in a 384-well plate. LNCaP cells were plated on the wells (1000 cells/well) in antibiotic free regular growth medium. After 48 h, vehicle control (DMSO) or Carboplatin dilutions were added into wells in appropriate concentrations diluted in FBS free medium and the cell confluence was monitored for five days using live-cell imaging (IncuCyte S3, Sartorius). Cell confluence was determined by automatic counting using IncuCyte S3 Image analysis tools. Cell confluence (confluence mask) on each time point was calculated based on phase-contrast imaging with a minimum area filter of 150 μm2, segmentation adjustment of 1.0, 100 μm2 cleanup and size adjust of −2 pixels. Confluence curves were compared for statistical differences between treatment conditions at each timepoint using t-test.

The test system of the next test is L1 ORF1p in LNCaP cells. Briefly: Western blot of L1 ORF1 protein. The following applies: carboplatin alone, or carboplatin with further addition of AZT, FIG. 9D. The protocol:
FIG. 9. Further validation of L1 activation and suppression. (A) L1 mRNA levels from pre- and post-castration samples from LuCaP 77 and LuCaP 105 (16). […] Asterisks indicate significant differences between treatment conditions based on t-test (*, p<0.05; **, p<0.01; ***, p<0.001).
Whole cell lysates were prepared using SDS sample buffer (66 mM Tris-HCl pH 6.8, 13% Glyserol, 2.1% SDS and 0.01% Bromophenol Blue) with protease inhibitor added (cOmplete™ Protease Inhibitor Cocktail, Roche).
For orientation: In western blotting, separated proteins are transferred to a membrane and probed.

For `CNC(=O)c1ccc(N2C(=S)N(c3ccc(C#N)c(C(F)(F)F)c3)C(=O)C2(C)C)cc1F` [ENZ, enzalutamide], in test [1], the “increase in ORF1 and ORF2 expression” value amounted to 5.5 fold. Further, the “L1 retrotransposition (L1-EGFP reporter, green fluorescence)” value in test [2] is on record as “relative increase in L1-EGFP reporter, below statistical significance”. The “ORF1 and ORF2 mRNA induction” value in test [3] (25-day incubation, ENZ alone or with AZT, FIG. 3D) was 8 fold. In addition, in test [3] (FIG. 3D), the “ORF1 and ORF2 mRNA expression compared to control treated cells” value is recorded as “no significant changes”.
`N.N.O=C([O-])C1(C(=O)[O-])CCC1.[Pt+2]` [carboplatin]: the “increase in ORF1 and ORF2 expression” value in test [1] is given as 7 fold; in test [3] (5-day treatment, carboplatin 5 μM, FIG. 3B) it was “approximately 4 fold”. Further, the “ORF1 and ORF2 mRNA expression compared to control treated cells” value in test [1] (5 days, alone or in combination, AZT 50 μM, FIG. 3D) is recorded as approximately 9 fold; in test [3] (FIG. 3D), “approximately 4 fold”. Further, the “L1 retrotransposition (L1-EGFP reporter, green fluorescence)” value in test [2] is “L1 retrotransposition indicated by green fluorescence appeared”. The “proliferation of siFANCI LNCaP cells on carboplatin exposure” value in the test on LNCaP cells is reported as “significantly decreased proliferation”. In addition, the “level of L1 ORF1p (Western blot)” value in the test on L1 ORF1p in LNCaP cells was “significantly increased”.
